Our source for the IC50 values is ChEMBL document CHEMBL1914349, “Porpoisamides A and B, two novel epimeric cyclic depsipeptides from a Florida Keys collection of Lyngbya sp” (Bioorg Med Chem, 2011).

For one assay, the system named is U2OS. Kind of assay: Antiproliferative activity against human U2OS cells after 48 hrs by MTT assay. The format is functional, cell-based. A general note: Tetrazolium assays rely on reduction of a dye to a coloured formazan, in cell work by metabolically active cells.
A further assay concerns HCT-116. As to the kind of experiment: Antiproliferative activity against human HCT116 cells after 48 hrs by MTT assay. The format is functional, cell-based. Particulars: HCT-116, 48 h.

A word on the IC50: it is the concentration needed to halve the response being measured. Consider `CCCCC[C@H]1NC(=O)[C@H](C)NC(=O)[C@@H](Cc2ccccc2)N(C)C(=O)[C@@H]2CCCN2C(=O)[C@H]([C@@H](C)CC)OC(=O)[C@H]1C` [PORPOISAMIDE A], for which the IC50 amounted to 28 µM in the assay on U2OS and 25 µM with HCT-116.
For `CCCCC[C@H]1NC(=O)[C@H](C)NC(=O)[C@@H](Cc2ccccc2)N(C)C(=O)[C@@H]2CCCN2C(=O)[C@H]([C@@H](C)CC)OC(=O)[C@@H]1C` [PORPOISAMIDE B], the IC50 in the assay on U2OS was 22 µM; in the assay on HCT-116, 21 µM.
